Results: ChEMBL document CHEMBL5465560, “Selectivity Literature for EUbOPEN Chemogenomic Library” (2024)
pIC50: −log10 of the molar value.

Columns and labels:
[1] = biological target: Serine/threonine-protein kinase PAK 6 (Homo sapiens) (UniProt Q9NQU5); assay: Selectivity interaction (KinomeScan (DiscoverX)) EUB0000618a PAK6; conditions: at 10 µM
[2] = biological target: Tyrosine-protein kinase Fes/Fps (Homo sapiens) (UniProt P07332); assay: Selectivity interaction (KinomeScan (DiscoverX)) EUB0001619a FES; conditions: at 1 µM
[3] = biological target: T1, cGMP-dependent protein kinase 1 (Homo sapiens) (UniProt Q13976); assay: Selectivity interaction (KinomeScan (DiscoverX)) EUB0000045b PRKG1
T1 sequence (whole entry): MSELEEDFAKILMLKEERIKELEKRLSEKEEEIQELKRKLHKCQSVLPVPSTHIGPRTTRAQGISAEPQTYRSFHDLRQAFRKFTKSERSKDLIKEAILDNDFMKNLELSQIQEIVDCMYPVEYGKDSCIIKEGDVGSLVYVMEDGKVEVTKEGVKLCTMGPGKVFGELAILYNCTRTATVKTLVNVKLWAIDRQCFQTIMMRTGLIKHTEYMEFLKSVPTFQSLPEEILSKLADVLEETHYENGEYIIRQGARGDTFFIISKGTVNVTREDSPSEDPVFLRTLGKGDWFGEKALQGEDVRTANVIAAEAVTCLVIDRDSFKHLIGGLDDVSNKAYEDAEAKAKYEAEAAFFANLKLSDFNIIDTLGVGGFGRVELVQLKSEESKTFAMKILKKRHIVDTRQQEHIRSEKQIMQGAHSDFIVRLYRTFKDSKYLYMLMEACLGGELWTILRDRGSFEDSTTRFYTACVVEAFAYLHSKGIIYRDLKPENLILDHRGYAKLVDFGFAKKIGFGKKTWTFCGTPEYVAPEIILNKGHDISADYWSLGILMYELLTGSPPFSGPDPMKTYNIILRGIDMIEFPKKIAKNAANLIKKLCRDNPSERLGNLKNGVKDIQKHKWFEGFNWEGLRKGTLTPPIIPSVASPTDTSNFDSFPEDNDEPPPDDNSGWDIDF

[4] = biological target: Phosphatidylinositol 4-kinase beta (Homo sapiens, UniProt Q9UBF8); assay: Selectivity interaction (Kinase panel (KiNativ target engagement assay in Jurkat cells)) EUB0001635a PI4KB; type: cell-based; conditions: Selectivity number of off-targets 0.0, Selectivity number of targets 233.0, Source Knowledge https://www.sciencedirect.com/science/article/pii/S2451945619300674?via%3Dihub, at 1 µM
[5] = biological target: T2, Ephrin type-A receptor 1 (Homo sapiens) (UniProt P21709); conditions: at 10 µM
T2 sequence (whole entry): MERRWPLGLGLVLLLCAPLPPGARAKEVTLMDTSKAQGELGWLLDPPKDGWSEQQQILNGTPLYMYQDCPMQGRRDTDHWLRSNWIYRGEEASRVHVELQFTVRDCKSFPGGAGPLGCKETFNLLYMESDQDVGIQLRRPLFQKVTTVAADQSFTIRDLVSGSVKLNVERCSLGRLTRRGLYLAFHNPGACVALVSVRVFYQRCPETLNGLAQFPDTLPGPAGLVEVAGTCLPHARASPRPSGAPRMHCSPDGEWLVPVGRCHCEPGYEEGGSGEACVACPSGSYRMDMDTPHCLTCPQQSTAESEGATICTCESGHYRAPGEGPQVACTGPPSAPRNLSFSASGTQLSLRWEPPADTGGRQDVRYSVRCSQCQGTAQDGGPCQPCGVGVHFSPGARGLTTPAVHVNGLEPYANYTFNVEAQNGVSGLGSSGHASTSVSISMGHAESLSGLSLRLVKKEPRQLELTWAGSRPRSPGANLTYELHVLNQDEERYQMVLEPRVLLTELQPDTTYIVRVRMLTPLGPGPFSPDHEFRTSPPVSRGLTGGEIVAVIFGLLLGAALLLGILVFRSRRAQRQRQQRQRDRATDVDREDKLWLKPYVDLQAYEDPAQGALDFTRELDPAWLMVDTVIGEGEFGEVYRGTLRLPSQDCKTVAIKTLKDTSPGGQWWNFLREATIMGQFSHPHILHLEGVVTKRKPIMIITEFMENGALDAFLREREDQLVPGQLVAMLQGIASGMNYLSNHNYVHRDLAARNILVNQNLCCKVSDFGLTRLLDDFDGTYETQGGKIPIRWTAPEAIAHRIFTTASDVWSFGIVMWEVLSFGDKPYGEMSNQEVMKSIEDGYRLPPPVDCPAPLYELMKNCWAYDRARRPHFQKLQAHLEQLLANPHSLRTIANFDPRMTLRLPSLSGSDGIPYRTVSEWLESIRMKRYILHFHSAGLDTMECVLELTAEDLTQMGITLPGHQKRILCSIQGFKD

[6] = biological target: Tyrosine-protein kinase JAK1 (Homo sapiens, UniProt P23458)
[7] = biological target: T3, Serine/threonine-protein kinase STK11 (Homo sapiens) (UniProt Q15831); assay: Selectivity interaction (KinomeScan (DiscoverX)) EUB0000092b STK11; conditions: at 10 µM
T3 sequence (whole entry): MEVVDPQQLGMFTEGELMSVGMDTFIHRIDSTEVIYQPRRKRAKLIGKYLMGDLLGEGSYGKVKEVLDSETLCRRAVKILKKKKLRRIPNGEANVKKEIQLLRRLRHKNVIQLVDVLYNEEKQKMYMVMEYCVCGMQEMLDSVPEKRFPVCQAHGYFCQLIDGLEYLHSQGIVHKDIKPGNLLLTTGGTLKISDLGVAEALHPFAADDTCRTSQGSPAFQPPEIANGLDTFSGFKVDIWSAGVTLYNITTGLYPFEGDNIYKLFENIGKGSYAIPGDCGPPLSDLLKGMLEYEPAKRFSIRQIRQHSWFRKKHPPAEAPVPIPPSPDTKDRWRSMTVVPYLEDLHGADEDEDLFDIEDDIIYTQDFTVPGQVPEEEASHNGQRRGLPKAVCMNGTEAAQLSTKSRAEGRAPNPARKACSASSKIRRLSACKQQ

[8] = biological target: Serine/threonine-protein kinase/endoribonuclease IRE1 (Homo sapiens) (UniProt O75460); assay: Selectivity interaction (KinomeScan (DiscoverX)) EUB0000092b ERN1; conditions: at 10 µM
[9] = biological target: Serine/threonine-protein kinase OSR1 (Homo sapiens) (UniProt O95747); assay: Selectivity interaction (KinomeScan (DiscoverX)) EUB0000695a OXSR1; conditions: at 100 nM
Chain of Serine/threonine-protein kinase OSR1 (Homo sapiens) (O95747 2-527 limits assumed): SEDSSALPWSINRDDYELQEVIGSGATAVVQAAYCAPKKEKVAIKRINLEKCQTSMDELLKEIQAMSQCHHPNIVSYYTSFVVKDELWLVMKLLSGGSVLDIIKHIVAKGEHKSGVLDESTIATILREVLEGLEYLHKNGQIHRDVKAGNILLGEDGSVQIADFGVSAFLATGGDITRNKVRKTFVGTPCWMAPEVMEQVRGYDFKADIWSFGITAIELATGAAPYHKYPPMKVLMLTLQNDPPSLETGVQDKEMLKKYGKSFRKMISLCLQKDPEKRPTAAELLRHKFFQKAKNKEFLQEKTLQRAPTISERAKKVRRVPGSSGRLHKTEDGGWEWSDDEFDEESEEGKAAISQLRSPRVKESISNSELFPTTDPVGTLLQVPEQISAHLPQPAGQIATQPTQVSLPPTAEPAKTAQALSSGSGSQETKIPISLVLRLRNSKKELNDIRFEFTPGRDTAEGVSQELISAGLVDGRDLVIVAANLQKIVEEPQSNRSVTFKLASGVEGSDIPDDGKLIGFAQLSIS

Chain of Phosphatidylinositol 4-kinase beta (Q9UBF8 2-816 limits assumed): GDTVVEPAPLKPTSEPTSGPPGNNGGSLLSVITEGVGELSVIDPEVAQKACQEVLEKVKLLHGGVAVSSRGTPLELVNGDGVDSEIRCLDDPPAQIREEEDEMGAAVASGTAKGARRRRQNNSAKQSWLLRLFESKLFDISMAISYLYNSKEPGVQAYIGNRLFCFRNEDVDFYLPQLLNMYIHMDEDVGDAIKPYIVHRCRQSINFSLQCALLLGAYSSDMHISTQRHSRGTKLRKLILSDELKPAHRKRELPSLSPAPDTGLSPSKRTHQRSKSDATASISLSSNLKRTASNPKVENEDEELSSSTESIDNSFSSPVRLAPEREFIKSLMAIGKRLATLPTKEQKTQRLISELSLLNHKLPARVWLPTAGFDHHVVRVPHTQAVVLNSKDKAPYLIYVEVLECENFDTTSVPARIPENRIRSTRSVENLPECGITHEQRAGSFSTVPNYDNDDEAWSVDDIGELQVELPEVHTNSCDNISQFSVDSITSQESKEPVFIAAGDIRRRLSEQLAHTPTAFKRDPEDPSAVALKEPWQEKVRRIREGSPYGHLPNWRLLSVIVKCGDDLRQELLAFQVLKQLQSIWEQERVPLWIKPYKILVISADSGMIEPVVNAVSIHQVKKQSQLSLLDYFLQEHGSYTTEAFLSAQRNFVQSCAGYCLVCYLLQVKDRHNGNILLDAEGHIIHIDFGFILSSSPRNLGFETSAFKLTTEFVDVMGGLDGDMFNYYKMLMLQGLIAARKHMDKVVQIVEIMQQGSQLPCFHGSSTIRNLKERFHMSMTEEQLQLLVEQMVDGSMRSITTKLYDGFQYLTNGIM
Chain of Tyrosine-protein kinase JAK1 (P23458 whole entry): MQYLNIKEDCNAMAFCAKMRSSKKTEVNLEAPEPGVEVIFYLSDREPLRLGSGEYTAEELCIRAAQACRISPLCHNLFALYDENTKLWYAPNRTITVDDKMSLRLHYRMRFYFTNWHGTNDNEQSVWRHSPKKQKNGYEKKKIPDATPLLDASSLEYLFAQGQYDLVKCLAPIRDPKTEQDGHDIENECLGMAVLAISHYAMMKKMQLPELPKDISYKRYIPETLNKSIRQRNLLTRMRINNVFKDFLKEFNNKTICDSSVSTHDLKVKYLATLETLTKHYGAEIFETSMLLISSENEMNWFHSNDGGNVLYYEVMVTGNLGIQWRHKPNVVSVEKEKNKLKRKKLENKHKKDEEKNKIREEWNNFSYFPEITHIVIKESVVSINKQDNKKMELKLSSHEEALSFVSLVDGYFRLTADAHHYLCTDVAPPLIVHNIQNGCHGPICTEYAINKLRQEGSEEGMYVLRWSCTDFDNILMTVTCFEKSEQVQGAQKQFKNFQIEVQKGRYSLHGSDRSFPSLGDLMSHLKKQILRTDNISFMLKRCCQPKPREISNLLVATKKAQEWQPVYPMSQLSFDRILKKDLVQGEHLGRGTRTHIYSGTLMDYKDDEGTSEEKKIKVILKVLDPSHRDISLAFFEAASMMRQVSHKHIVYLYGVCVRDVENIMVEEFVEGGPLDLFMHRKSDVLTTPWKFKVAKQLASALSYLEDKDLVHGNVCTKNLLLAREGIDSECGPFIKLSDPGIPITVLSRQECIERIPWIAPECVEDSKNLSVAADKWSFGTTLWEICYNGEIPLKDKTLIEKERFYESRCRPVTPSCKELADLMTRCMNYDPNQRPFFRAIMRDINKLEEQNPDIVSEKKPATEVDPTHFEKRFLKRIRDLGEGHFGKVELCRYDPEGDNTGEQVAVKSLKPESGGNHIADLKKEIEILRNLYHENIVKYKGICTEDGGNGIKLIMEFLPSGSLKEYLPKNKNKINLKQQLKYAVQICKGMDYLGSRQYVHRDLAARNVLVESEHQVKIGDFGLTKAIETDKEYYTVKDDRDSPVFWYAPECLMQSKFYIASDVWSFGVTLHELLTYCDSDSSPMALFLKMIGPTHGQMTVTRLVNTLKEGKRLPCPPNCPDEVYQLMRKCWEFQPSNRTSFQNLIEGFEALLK
Chain of Tyrosine-protein kinase Fes/Fps (Homo sapiens) (P07332 whole entry): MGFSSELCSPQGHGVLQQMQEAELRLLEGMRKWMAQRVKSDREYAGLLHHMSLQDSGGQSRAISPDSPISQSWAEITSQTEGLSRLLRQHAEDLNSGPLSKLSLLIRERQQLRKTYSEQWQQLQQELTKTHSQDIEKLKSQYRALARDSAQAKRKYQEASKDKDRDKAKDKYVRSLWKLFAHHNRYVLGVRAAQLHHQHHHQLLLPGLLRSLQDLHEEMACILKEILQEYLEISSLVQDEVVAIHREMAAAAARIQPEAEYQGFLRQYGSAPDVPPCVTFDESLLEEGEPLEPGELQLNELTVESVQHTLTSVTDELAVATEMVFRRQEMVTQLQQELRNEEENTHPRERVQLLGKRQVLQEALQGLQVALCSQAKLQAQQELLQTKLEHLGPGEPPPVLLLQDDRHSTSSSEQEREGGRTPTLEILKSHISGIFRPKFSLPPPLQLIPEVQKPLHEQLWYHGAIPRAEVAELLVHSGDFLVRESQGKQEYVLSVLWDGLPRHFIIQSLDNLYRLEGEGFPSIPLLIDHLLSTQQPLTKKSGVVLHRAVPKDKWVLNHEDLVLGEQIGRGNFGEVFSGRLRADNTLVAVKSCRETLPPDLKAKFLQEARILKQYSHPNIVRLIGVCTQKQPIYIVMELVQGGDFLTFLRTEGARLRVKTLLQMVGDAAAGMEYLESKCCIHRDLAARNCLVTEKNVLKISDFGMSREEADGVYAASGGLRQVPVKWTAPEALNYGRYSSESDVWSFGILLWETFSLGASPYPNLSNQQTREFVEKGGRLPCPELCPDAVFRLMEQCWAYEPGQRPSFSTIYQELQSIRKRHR
Chain of Serine/threonine-protein kinase/endoribonuclease IRE1 (Homo sapiens) (O75460 19-977 limits assumed): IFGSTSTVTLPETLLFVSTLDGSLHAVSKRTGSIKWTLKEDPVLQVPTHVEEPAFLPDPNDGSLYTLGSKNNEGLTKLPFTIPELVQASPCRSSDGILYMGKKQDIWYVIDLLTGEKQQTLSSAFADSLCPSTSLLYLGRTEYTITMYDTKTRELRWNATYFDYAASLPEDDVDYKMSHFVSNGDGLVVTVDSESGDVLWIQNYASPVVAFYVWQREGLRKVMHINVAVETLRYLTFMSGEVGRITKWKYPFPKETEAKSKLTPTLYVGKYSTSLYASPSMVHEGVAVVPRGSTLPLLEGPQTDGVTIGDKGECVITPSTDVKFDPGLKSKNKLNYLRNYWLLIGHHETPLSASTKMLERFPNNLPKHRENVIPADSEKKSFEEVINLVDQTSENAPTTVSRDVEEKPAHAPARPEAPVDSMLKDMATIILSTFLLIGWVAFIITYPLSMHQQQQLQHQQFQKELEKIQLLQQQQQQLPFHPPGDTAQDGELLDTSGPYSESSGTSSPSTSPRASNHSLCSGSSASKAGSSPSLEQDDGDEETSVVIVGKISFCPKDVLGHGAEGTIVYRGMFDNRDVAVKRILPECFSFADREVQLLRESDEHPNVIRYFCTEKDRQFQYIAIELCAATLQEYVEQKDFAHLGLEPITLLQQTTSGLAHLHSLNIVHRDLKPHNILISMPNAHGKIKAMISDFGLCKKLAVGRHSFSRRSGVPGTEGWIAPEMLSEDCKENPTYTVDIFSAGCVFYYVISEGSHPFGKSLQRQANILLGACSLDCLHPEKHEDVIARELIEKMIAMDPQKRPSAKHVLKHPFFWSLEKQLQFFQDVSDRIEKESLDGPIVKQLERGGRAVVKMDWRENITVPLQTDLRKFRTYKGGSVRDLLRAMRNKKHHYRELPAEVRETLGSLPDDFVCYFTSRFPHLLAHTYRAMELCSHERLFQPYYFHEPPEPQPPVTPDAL
Chain of Serine/threonine-protein kinase PAK 6 (Homo sapiens) (Q9NQU5 whole entry, looked up): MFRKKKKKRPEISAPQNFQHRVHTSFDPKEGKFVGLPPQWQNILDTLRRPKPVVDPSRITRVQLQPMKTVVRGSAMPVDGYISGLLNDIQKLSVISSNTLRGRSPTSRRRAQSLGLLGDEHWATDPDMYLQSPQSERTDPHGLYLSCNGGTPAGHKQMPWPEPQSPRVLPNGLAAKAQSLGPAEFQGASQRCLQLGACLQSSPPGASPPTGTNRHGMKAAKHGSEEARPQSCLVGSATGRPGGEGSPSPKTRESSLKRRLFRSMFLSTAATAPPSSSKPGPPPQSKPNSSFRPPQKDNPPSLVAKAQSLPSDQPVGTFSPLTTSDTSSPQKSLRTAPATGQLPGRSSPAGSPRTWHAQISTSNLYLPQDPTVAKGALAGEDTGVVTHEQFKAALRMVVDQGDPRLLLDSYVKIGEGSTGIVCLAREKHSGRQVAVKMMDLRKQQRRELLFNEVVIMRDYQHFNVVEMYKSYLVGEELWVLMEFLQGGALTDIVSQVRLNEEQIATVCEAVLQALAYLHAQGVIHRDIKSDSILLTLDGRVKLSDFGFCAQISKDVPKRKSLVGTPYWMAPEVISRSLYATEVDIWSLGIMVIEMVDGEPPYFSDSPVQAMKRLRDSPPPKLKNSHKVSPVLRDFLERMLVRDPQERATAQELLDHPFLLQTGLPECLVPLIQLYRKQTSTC

In the case of `O[C@H]1CC[C@H](Nc2ncc3nc(Nc4c(F)cc(F)cc4F)n([C@H]4CCOC4)c3n2)CC1`, the % of control [1] was 100%.

`N#Cc1cccc(-c2c[nH]c3ncnc(N4CCOCC4)c23)c1` gave a % of control [2] of 100%.

`C=CC(=O)Nc1cc(-n2c(=O)ccc3cnc4ccc(-c5ccc(NS(C)(=O)=O)cc5)cc4c32)ccc1C` was tested, and the % of control ([3]; at 1 µM) was 87% and the % of control ([3]; at 10 µM) was 100%.

Work on `C=CC(=O)Nc1ccc(C(=O)Nc2[nH]nc3c2CN(C(=O)N[C@H](CN(C)C)c2ccccc2)C3(C)C)cc1` yielded a % of engagement [4] of -4.1%.

Molecule `Cc1cc([C@@H](C)Nc2ccccc2C(=O)O)c2nc(N3CCOCC3)cc(=O)n2c1` [AZD-6482] has a % of control [5] of 100%.

`CCc1cccc(CC)c1NC(=O)c1nn(C)c2c1CCc1cnc(Nc3ccc(C(=O)NC4CCN(C)CC4)cc3OC(F)(F)F)nc1-2` was tested, and the pIC50 [6] was < 5.00.

Molecule `CCC(=O)N1CCN(c2ccc(-n3c(=O)ccc4cnc5ccc(-c6cnc7ccccc7c6)cc5c43)cc2C(F)(F)F)CC1` has a % of control [7] of 100% and a % of control [8] of 100%.

In the case of `Cc1cc(F)c(C(=O)Nc2cccc(-c3nncn3C(C)C)n2)cc1-n1cnc(C2CC2)c1`, the % of control [9] was 86%.
